Measurements as given in PubChem BioAssay (NCI).
Values joined by “and” are separate entries in the source; they are usually repeats but may differ in a detail not shown here. Equal values may be shown once.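 Cells were grown in 96-well plates and exposed to each compound for 48 hours at five concentrations; endpoints were interpolated linearly between bracketing concentrations, or set to the highest concentration if not reached. GI50 is the concentration that inhibits growth by half. TGI marks complete inhibition of growth.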

Legend:
Assay in all cases: NCI-60 cell line screen, 48 h
[1] = system: UACC-257 melanoma
[2] = system: UO-31 renal
[3] = system: NCI-H522 lung
[4] = system: NCI/ADR-RES ovarian
[5] = system: SF-295 CNS
[6] = system: HOP-62 NSCLC
[7] = system: SK-MEL-28 melanoma
[8] = system: COLO 205 colon
[9] = system: MCF7 breast
[10] = system: SNB-19 CNS
[11] = system: HCT-15 colon
[12] = system: ACHN renal
[13] = system: SW-620 colon
[14] = system: SNB-75 CNS
[15] = system: MOLT-4 leukemia

SMILES	TGI [1]	TGI [2]	TGI [3]	TGI [4]	TGI [5]	TGI [6]	TGI [7]	TGI [8]	TGI [9]	TGI [10]	TGI [11]	TGI [12]	TGI [13]	TGI [14]	TGI [15]	GI50 [3]	GI50 [6]	GI50 [8]	GI50 [11]
Cn1c(=O)c2c(nc(N/N=C3/SCC(=O)N3Cc3ccccc3)n2C)n(C)c1=O	> 100 µM	> 100 µM	> 100 µM	> 100 µM	> 100 µM	> 100 µM	> 100 µM	> 100 µM	> 100 µM	> 100 µM	> 100 µM	> 100 µM	–	–	–	–	–	–	–
O=C(c1ccccc1)c1cc(Cl)ccc1NCn1nnc2ccccc21	> 100 µM	> 100 µM	> 100 µM	–	> 100 µM	> 100 µM	–	> 100 µM	–	> 100 µM	> 100 µM	> 100 µM	> 100 µM	> 100 µM	> 100 µM	–	–	–	–
Cc1ccc2nc(C(=O)O)c(=O)[nH]c2c1	> 100 µM	> 100 µM	> 100 µM	> 100 µM	> 100 µM	> 100 µM	> 100 µM	> 100 µM	> 100 µM	> 100 µM	> 100 µM	> 100 µM	> 100 µM	–	> 100 µM	–	–	–	–
COc1ccc2c(c1)CC[C@@H]1C2CC[C@]2(C)C(=C=CP(=O)(O)O)CCC12 (some centres undefined)	> 100 µM	–	> 100 µM	> 100 µM	> 100 µM	> 100 µM	> 100 µM	> 100 µM	> 100 µM	> 100 µM	> 100 µM	> 100 µM	> 100 µM	> 100 µM	–	–	–	–	–
N#Cc1c(N)nc(Sc2ccccc2N)c(C#N)c1-c1ccccc1	> 100 µM	34.3 µM	–	42.5 µM	–	> 100 µM	> 100 µM	> 100 µM	49.8 µM	> 100 µM	> 100 µM	69.2 µM	> 100 µM	–	> 100 µM	–	–	–	–
CC(C)=CCCC1(C)C2COC(=O)C21 (centres undefined)	> 100 µM	> 100 µM	> 100 µM	–	> 100 µM	> 100 µM and 75.4 µM	> 100 µM	> 100 µM	> 100 µM	> 100 µM	> 100 µM	> 100 µM	> 100 µM	–	–	> 100 µM and 47.2 µM	> 100 µM and 27.6 µM	> 100 µM and 34.2 µM	> 100 µM and 37 µM
CCCCCCCCCCCCC1N=C(N)N2CCCC2=C1C(=O)OC (centres undefined)	3.73 µM	24.4 µM	3.26 µM	20.4 µM	3.39 µM	9.95 µM	3.1 µM	4.17 µM	–	3.41 µM	3.11 µM	19.5 µM	3.05 µM	3.05 µM	4.22 µM	–	–	–	–
CN(C)C(=O)Oc1ccc(C(=S)Nc2ccccc2)cc1	> 100 µM	> 100 µM	> 100 µM	91.8 µM	> 100 µM	> 100 µM	> 100 µM	> 100 µM	> 100 µM	> 100 µM	> 100 µM	> 100 µM	> 100 µM	–	64 µM	–	–	–	–
O=S(=O)(O)c1cc(O)c(N=Nc2ccc3ccccc3c2O)c2ccccc12	66.7 µM	65 µM	40.2 µM	46.7 µM	> 100 µM	> 100 µM	> 100 µM	> 100 µM	–	> 100 µM	> 100 µM	> 100 µM	> 100 µM	79.1 µM	97 µM	–	–	–	–
CC1=CCN(c2ccccn2)OC1c1ccccc1 (centres undefined)	> 100 µM	> 100 µM	> 100 µM	–	> 100 µM	> 100 µM	> 100 µM	> 100 µM	–	> 100 µM	> 100 µM	> 100 µM	> 100 µM	> 100 µM	> 100 µM	–	–	–	–
CCOC(=O)c1c(-c2ccccc2)c(C)cn1C	> 10 µM	> 10 µM	> 10 µM	> 10 µM	> 10 µM	–	–	–	–	> 10 µM	> 10 µM	> 10 µM	–	> 10 µM	> 10 µM	–	–	–	–
C/C(CC(=O)Nc1cccc([N+](=O)[O-])c1)=N\NC(=O)C[n+]1ccccc1	> 100 µM	> 100 µM	> 100 µM	–	> 100 µM	> 100 µM	> 100 µM	> 100 µM	–	–	–	–	> 100 µM	> 100 µM	> 100 µM	–	–	–	–
O=c1[nH]c2ccc([N+](=O)[O-])cc2nc1/C(=N/Nc1ccccc1)C(O)c1ccco1 (centres undefined)	> 100 µM	> 100 µM	96.5 µM	–	> 100 µM	> 100 µM	> 100 µM	> 100 µM	–	> 100 µM	63.5 µM	> 100 µM	> 100 µM	> 100 µM	> 100 µM	–	–	–	–
Cc1ccc(NCCN(C)C)c2c(=O)c3cc(O)ccc3sc12	20.7 µM	17.4 µM	11.1 µM	–	18.4 µM	6.21 µM	12.5 µM	23.2 µM	1.59 µM	16.1 µM	9.99 µM	7.31 µM	5.76 µM	9.24 µM	3.2 µM	–	–	–	–
CC1(Cl)CC(C)(/C=C/Cl)C(Cl)CC1Cl (centres undefined)	–	29.8 µM	31.6 µM	–	28.5 µM	34.7 µM	29.4 µM	–	–	31.4 µM	27.3 µM	27.8 µM	30.8 µM	41.4 µM	> 100 µM	–	–	–	–
Cc1cc(C)n2c(nc3ccccc32)c1C#N	> 100 µM	> 100 µM	–	> 100 µM	> 100 µM	–	> 100 µM	> 100 µM	> 100 µM	> 100 µM	> 100 µM	> 100 µM	> 100 µM	–	> 100 µM	–	–	–	–
O=C1/C(=C/c2ccc(Cl)cc2)Oc2ccccc21	> 100 µM	30.4 µM	34.5 µM	–	> 100 µM	53.3 µM	> 100 µM	> 100 µM	> 100 µM	> 100 µM	> 100 µM	43.4 µM	> 100 µM	98.5 µM	> 100 µM	–	–	–	–
O=C(/C(=C/c1ccc(O)cc1)c1ccccc1)c1ccccc1	32.9 µM	29.4 µM	28.7 µM	–	33.4 µM	33.9 µM	31.9 µM	32.8 µM	–	–	31.9 µM	29.6 µM	32 µM	42.5 µM	37.3 µM	–	–	–	–
C#CCOC(=O)C(=[N+]=[N-])C(=O)CC(C)C	> 10 µM	> 10 µM	–	> 10 µM	> 10 µM	> 10 µM	> 10 µM	> 10 µM	> 10 µM	> 10 µM	> 10 µM	> 10 µM	> 10 µM	–	> 10 µM	–	–	–	–
COc1cc2c(cc1OC)C(=O)/C(=C/c1ccc(N(C)C)cc1)CC2	> 10 µM	> 10 µM	–	> 10 µM	> 10 µM	> 10 µM	> 10 µM	> 10 µM	> 10 µM	> 10 µM	> 10 µM	> 10 µM	> 10 µM	–	> 10 µM	–	–	–	–
Cc1ncc(CSC(=N)N)n1Cc1ccccc1	> 100 µM	> 100 µM	64.4 µM	> 100 µM	> 100 µM	> 100 µM	> 100 µM	> 100 µM	> 100 µM	> 100 µM	> 100 µM	> 100 µM	> 100 µM	–	–	–	–	–	–
O=CC1=CCC2c3[nH]c4ccccc4c3CCN2C1 (centres undefined)	347 µM	–	> 396 µM	–	326 µM	> 39.6 µM	248 µM	> 396 µM	–	> 396 µM	156 µM	> 396 µM	> 396 µM	–	> 396 µM	–	–	–	–
CC(=O)N[C@@H](Cc1ccc(O)cn1)C(=O)NC1CCCCC1	> 100 µM	> 100 µM	> 100 µM	> 100 µM	> 100 µM	> 100 µM	> 100 µM	> 100 µM	> 100 µM	> 100 µM	> 100 µM	> 100 µM	> 100 µM	–	> 100 µM	–	–	–	–
CC(C)=CC(=O)c1c(C(=O)O)nc2ccccc2[n+]1[O-]	> 100 µM	> 100 µM	–	–	> 100 µM	> 100 µM	> 100 µM	> 100 µM	–	> 100 µM	> 100 µM	> 100 µM	> 100 µM	> 100 µM	> 100 µM	–	–	–	–
CC(=O)[C@]1(O)Cc2c(O)c3c(c(O)c2[C@@H](OC2CC(N)C(O)C(C)O2)C1)C(=O)c1c(OCc2ccccc2)cccc1C3=O (some centres undefined)	11.1 µM	8.79 µM	5.19 µM	–	4.05 µM	16 µM	2.91 µM	–	–	9.04 µM	2.75 µM	4.91 µM	2 µM	13.8 µM	–	–	–	–	–
COC(=O)CC1CC2(C(=O)OC)c3[nH]c4ccccc4c3CCN2C1=O (centres undefined)	> 100 µM	> 100 µM	> 100 µM	–	> 100 µM	> 100 µM	> 100 µM	> 100 µM	–	> 100 µM	> 100 µM	> 100 µM	> 100 µM	> 100 µM	> 100 µM	–	–	–	–
O=c1c2cc(I)ccc2nc(-c2cccs2)n1O	> 100 µM	> 100 µM	> 100 µM	> 100 µM	> 100 µM	> 100 µM	> 100 µM	> 100 µM	> 100 µM	72 µM	> 100 µM	> 100 µM	> 100 µM	–	> 100 µM	–	–	–	–
